Laboratory results reported in US20240317744A1, “Bicyclic Ureas As Kinase Inhibitors” (Incyte Corporation, priority 2023, published 2024).
pIC50: −log10 of the molar value.

What was measured:
[1] = biological target: T1, catalytic domain (JH1, amino acids 826-1132) of human JAK2 (Homo sapiens, UniProt O60674); test: JAK2 LanthaScreen JH1 Binding Assay; settings: JAK2 JH1 1.5 nM, 50 nM tracer, 2 hours at 25° C.; read-out: JH1 BIND
T1 construct: catalytic domain (JH1, amino acids 826-1132) of human JAK2; FLAG (N); biotin (biotinylated); purchased Carna Biosciences 08-445-20N; host or cells: baculovirus expression system
T1 sequence (O60674 826-1132): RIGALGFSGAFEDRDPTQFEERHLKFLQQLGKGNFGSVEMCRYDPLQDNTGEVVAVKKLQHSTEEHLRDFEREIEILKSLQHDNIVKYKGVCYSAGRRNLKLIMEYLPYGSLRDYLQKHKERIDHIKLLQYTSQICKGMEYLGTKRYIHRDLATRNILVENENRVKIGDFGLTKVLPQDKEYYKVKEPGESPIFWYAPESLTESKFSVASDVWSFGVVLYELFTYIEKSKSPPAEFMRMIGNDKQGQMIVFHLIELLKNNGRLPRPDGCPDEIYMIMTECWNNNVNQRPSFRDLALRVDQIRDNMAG
Protocol: Example A. JAK2 LanthaScreen JH1 Binding Assay
JAK2 JH1 binding assay utilizes catalytic domain (JH1, amino acids 826-1132) of human JAK2 expressed as N-terminal FLAG-tagged, biotinylated protein in a baculovirus expression system (Carna Biosciences, Product #08-445-20N). The assay was conducted in black 384-well polystyrene plates in a final reaction volume of 20 μL. JAK2 JH1 (1.5 nM) was incubated with compounds (100 nL serially diluted in DMSO) in the presence of 50 nM fluorescent JAK2-JH1 tracer and 0.5 nM Streptavidin-Tb cryptate (Cisbio Part #610SATLB) in assay buffer (50 mM Tris, pH=7.5, 10 mM MgCl2, 0.01% Brij-35, 0.1% BSA, 1 mM EGTA, 5% Glycerol and 5 mM DTT). Non-specific binding was accessed in the presence of 2 mM ATP. After incubation for 2 hours at 25° C., LanthaScreen signals were read on a PHERAstar FS plate reader (BMG LABTECH). Data was analyzed with IDBS XLfit and GraphPad Prism 5.0 software using a four parameter dose response curve to determine IC50 for each compound.

[2] = biological target: catalytic domain (JH1, amino acids 808-1132) of human JAK2 (Homo sapiens, UniProt O60674); test: JAK2 HTRF Enzyme Activity Assay; format: biochemical; settings: ATP 30 µM, 60 minutes at 25° C.; read-out: V617F ENZ 30 UM
catalytic domain (JH1, amino acids 808-1132) of human JAK2, sequence (O60674 808-1132 limits assumed): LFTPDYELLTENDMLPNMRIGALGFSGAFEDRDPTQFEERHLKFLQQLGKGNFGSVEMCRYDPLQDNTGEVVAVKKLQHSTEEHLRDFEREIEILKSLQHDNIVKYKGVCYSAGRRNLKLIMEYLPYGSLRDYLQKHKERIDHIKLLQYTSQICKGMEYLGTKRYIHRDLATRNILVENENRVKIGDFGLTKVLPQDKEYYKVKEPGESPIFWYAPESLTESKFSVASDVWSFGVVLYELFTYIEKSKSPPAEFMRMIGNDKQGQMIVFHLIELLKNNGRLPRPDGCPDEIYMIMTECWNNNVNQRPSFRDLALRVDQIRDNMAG

[3] = biological target: T2, pseudo-kinase domain (JH2, amino-acids 536-812) of human V617F mutant JAK2 (Homo sapiens, UniProt O60674, F794H/V617F/W659A/W777A); test: JAK2 LanthaScreen JH2-V617F Binding Assay; settings: JAK2 JH2-V617F 0.26 nM, 50 nM tracer, 1 hour at 25° C.; read-out: JH2 BIND V617F
T2 construct: pseudo-kinase domain (JH2, amino-acids 536-812 with 3 surface mutations W659A, W777A, F794H); His (C); purchased BPS Bioscience 79498; host or cells: baculovirus expression system
T2 sequence (O60674 536-812 V617F/W659A/W777A/F794H): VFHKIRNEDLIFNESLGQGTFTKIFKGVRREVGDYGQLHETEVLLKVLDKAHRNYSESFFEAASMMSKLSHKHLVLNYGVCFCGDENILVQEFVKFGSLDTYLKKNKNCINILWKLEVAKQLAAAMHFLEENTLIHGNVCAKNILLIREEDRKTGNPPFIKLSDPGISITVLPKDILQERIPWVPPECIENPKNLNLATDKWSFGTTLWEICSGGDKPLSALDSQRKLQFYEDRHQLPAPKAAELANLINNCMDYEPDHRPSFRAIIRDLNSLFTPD
How it was run: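 Competition of compounds with a fluorescent tracer (50 nM) for the biotinylated domain (0.26 nM), detected via streptavidin-Tb (0.25 nM) after 1 h at 25° C in pH 7.5 Tris buffer containing glycerol, BSA and Brij-35. ATP at 2 mM gave background. IC50 by four-parameter fit.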

[4] = biological target: T3, pseudo-kinase domain (JH2, amino-acids 536-812) of human Wild Type JAK2 (Homo sapiens, UniProt O60674, F794H/W659A/W777A); test: JAK2 LanthaScreen JH2-WT Binding Assay; settings: JAK2 JH2-WT 0.145 nM, 50 nM tracer, 1 hour at 25° C.; read-out: JH2 BIND WT
T3 construct: pseudo-kinase domain (JH2, amino-acids 536-812 with 3 surface mutations W659A, W777A, F794H); His (C); purchased BPS Bioscience 79463; host or cells: baculovirus expression system
T3 sequence (O60674 536-812 W659A/W777A/F794H): as the sequence (O60674 536-812 V617F/W659A/W777A/F794H) above, with F82V counted along it
Protocol: Example B. JAK2 LanthaScreen JH2-WT Binding Assay
JAK2 JH2-WT binding assay utilizes pseudo-kinase domain (JH2, amino-acids 536-812 with 3 surface mutations W659A, W777A, F794H) of human Wild Type JAK2 expressed as C-terminal His-Avi-tagged, biotinylated protein in a baculovirus expression system (BPS Bioscience, Catalog #79463). The assay was conducted in black 384-well polystyrene plates in a final reaction volume of 20 μL. JAK2 JH2-WT (0.145 nM) was incubated with compounds (100 nL serially diluted in DMSO) in the presence of 50 nM Fluorescent JAK2-JH2 Tracer (MedChem Express Catalog #HY-102055) and 0.25 nM Streptavidin-Tb cryptate (Cisbio Part #610SATLB) in assay buffer (50 mM Tris, pH=7.5, 10 mM MgCl2, 0.01% Brij-35, 0.1% BSA, 1 mM EGTA, 5% Glycerol and 5 mM DTT). Non-specific binding was accessed in the presence of 2 mM ATP. After incubation for 1 hour at 25° C., LanthaScreen signals were read on a PHERAstar FS plate reader (BMG LABTECH). Data was analyzed with IDBS XLfit and GraphPad Prism 5.0 software using a four parameter dose response curve to determine IC50 for each compound.

SMILES | pIC50 [1] | pIC50 [2] | pIC50 [3] | pIC50 [4]
COC(=O)N[C@@H]1CC[C@@H](n2c(=O)n(C)c3cnc(Nc4cccc(-c5ccc6[nH]nc(C)c6c5)n4)cc32)C1 [Example 7, Methyl ((1R,3R)-3-(3-methyl-6-((6-(3-methyl-1H-indazol-5-yl)pyridin-2-yl)amino)-2-oxo-2,3-dihydro-1H-imidazo[4,5-c]pyridin-1-yl)cyclopentyl)carbamate] | < 6.00 | < 6.00 | 7.00 to 8.00 | ≥ 8.00
COC(=O)N[C@@H]1CC[C@@H](n2c(=O)n(C)c3cnc(Nc4cccc(-c5ccc6c(c5)OCCO6)n4)cc32)C1 [Example 8, Methyl ((1R,3R)-3-(6-((6-(2,3-dihydrobenzo[b][1,4]dioxin-6-yl)pyridin-2-yl)amino)-3-methyl-2-oxo-2,3-dihydro-1H-imidazo[4,5-c]pyridin-1-yl)cyclopentyl)carbamate] | < 6.00 | < 6.00 | ≥ 8.00 | ≥ 8.00
COC(=O)N[C@@H]1CC[C@@H](n2c(=O)n(C)c3cnc(Nc4cccc(-c5ccc6ncccc6c5)n4)cc32)C1 [Example 9, Methyl ((1R,3R)-3-(3-methyl-2-oxo-6-((6-(quinolin-6-yl)pyridin-2-yl)amino)-2,3-dihydro-1H-imidazo[4,5-c]pyridin-1-yl)cyclopentyl)carbamate] | < 6.00 | < 6.00 | ≥ 8.00 | ≥ 8.00
[2H]C([2H])([2H])n1c(=O)n([C@@H]2CC[C@@H](NC(=O)OC)C2)c2cc(Nc3cc(C(=O)N4CC5CC5(O)C4)c4cccc(C(F)(F)F)c4n3)ncc21 (stereo partly drawn) [Example 10, Methyl ((1R,3R)-3-(6-((4-(1-hydroxy-3-azabicyclo[3.1.0]hexane-3-carbonyl)-8-(trifluoromethyl)quinolin-2-yl)amino)-3-(methyl-d3)-2-oxo-2,3-dihydro-1H-imidazo[4,5-c]pyridin-1-yl)cyclopentyl)carbamate] | 6.00 to 6.30 | 6.30 to 7.00 | ≥ 8.00 | ≥ 8.00
COC(=O)N[C@@H]1CC[C@@H](n2c(=O)n(C)c3cnc(Nc4cccc(-c5ccc6c(c5)OCCN6C)n4)cc32)C1 [Example 11, Methyl ((1R,3R)-3-(3-methyl-6-((6-(4-methyl-3,4-dihydro-2H-benzo[b][1,4]oxazin-7-yl)pyridin-2-yl)amino)-2-oxo-2,3-dihydro-1H-imidazo[4,5-c]pyridin-1-yl)cyclopentyl)carbamate] | < 6.00 | < 6.00 | ≥ 8.00 | ≥ 8.00
[2H]C([2H])([2H])n1c(=O)n([C@@H]2CC[C@@H](NC(=O)OC)C2)c2cc(Nc3cc(C(=O)N4CC5CC4CO5)c4cccc(C(F)(F)F)c4n3)ncc21 (stereo partly drawn) [Example 12, Methyl ((1R,3R)-3-(6-((4-(2-oxa-5-azabicyclo[2.2.1]heptane-5-carbonyl)-8-(trifluoromethyl)quinolin-2-yl)amino)-3-(methyl-d3)-2-oxo-2,3-dihydro-1H-imidazo[4,5-c]pyridin-1-yl)cyclopentyl)carbamate] | < 6.00 | < 6.00 | ≥ 8.00 | ≥ 8.00
[2H]C([2H])([2H])n1c(=O)n([C@@H]2CC[C@@H](NC(=O)OC)C2)c2cc(Nc3cc(C(=O)N4CCOC5CC54)c4cccc(C(F)(F)F)c4n3)ncc21 (stereo partly drawn) [Example 13, Methyl ((1R,3R)-3-(6-((4-(2-oxa-5-azabicyclo[4.1.0]heptane-5-carbonyl)-8-(trifluoromethyl)quinolin-2-yl)amino)-3-(methyl-d3)-2-oxo-2,3-dihydro-1H-imidazo[4,5-c]pyridin-1-yl)cyclopentyl)carbamate] | 6.00 to 6.30 | 6.00 to 6.30 | ≥ 8.00 | ≥ 8.00
COC(=O)Nc1cc(Nc2cc3c(cn2)n(C)c(=O)n3[C@@H]2CC[C@@H](NC(=O)OC)C2)cc(-c2cn(C)nn2)c1 [Example 14, Methyl (3-((1-((1R,3R)-3-((methoxycarbonyl)amino)cyclopentyl)-3-methyl-2-oxo-2,3-dihydro-1H-imidazo[4,5-c]pyridin-6-yl)amino)-5-(1-methyl-1H-1,2,3-triazol-4-yl)phenyl)carbamate] | < 6.00 | < 6.00 | 7.00 to 8.00 | ≥ 8.00
COC(=O)Nc1cc(Nc2cc3c(cn2)n(C)c(=O)n3[C@@H]2CC[C@@H](NC(=O)OC)C2)cc(C2CCN(C)CC2)c1 [Example 15, Methyl (3-((1-((1R,3R)-3-((methoxycarbonyl)amino)cyclopentyl)-3-methyl-2-oxo-2,3-dihydro-1H-imidazo[4,5-c]pyridin-6-yl)amino)-5-(1-methylpiperidin-4-yl)phenyl)carbamate] | < 6.00 | < 6.00 | 7.00 to 8.00 | ≥ 8.00
[2H]C([2H])([2H])n1c(=O)n([C@@H]2CC[C@@H](NC(=O)OC)C2)c2cc(Nc3cc(C(=O)N4CCCC(F)(F)C4)c4cccc(C(F)(F)F)c4n3)ncc21 [Example 16, Methyl ((1R,3R)-3-(6-((4-(3,3-difluoropiperidine-1-carbonyl)-8-(trifluoromethyl)quinolin-2-yl)amino)-3-(methyl-d3)-2-oxo-2,3-dihydro-1H-imidazo[4,5-c]pyridin-1-yl)cyclopentyl)carbamate] | < 6.00 | < 6.00 | ≥ 8.00 | ≥ 8.00
COC(=O)N[C@@H]1CC[C@@H](n2c(=O)n(C)c3cnc(Nc4cc(NC(=O)[C@H]5CC5(F)F)cc(C5CCOCC5)c4)cc32)C1 [Example 17, Methyl ((1R,3R)-3-(6-((3-((R)-2,2-difluorocyclopropane-1-carboxamido)-5-(tetrahydro-2H-pyran-4-yl)phenyl)amino)-3-methyl-2-oxo-2,3-dihydro-1H-imidazo[4,5-c]pyridin-1-yl)cyclopentyl)carbamate] | < 6.00 | < 6.00 | ≥ 8.00 | ≥ 8.00
[2H]C([2H])([2H])n1c(=O)n([C@@H]2CC[C@@H](NC(=O)OC)C2)c2cc(Nc3ccc4cc(NC5CCC(F)(F)C5)cc(C(F)(F)F)c4n3)ncc21 (stereo partly drawn) [Example 18, Methyl ((1R,3R)-3-(6-((6-((3,3-difluorocyclopentyl)amino)-8-(trifluoromethyl)quinolin-2-yl)amino)-3-(methyl-d3)-2-oxo-2,3-dihydro-1H-imidazo[4,5-c]pyridin-1-yl)cyclopentyl)carbamate] | < 6.00 | < 6.00 | ≥ 8.00 | ≥ 8.00
COC(=O)N[C@@H]1CC[C@@H](n2c(=O)n(C)c3cnc(Nc4cc(NC(=O)C5CCC5)cc(C5CCOCC5)c4)cc32)C1 [Example 19, Methyl ((1R,3R)-3-(6-((3-(cyclobutanecarboxamido)-5-(tetrahydro-2H-pyran-4-yl)phenyl)amino)-3-methyl-2-oxo-2,3-dihydro-1H-imidazo[4,5-c]pyridin-1-yl)cyclopentyl)carbamate] | < 6.00 | < 6.00 | ≥ 8.00 | ≥ 8.00
